Measurements as given in patent US20250195502A1, “APPLICATION OF TETRACYCLIC COMPOUND IN TREATMENT OF TUMORS” (SHANGHAI SHIJIANG BIOTECHNOLOGY CO., LTD, priority 2022, published 2025).
Where two headings read alike, the source gives them in different places.

What was measured:
Format in all cases: cell-based
[1] = tested on: G-401 (human renal carcinoma Wilms cell); experiment: Cell viability assay (Promega CellTiter-Glo), inhibitory effect on G-401; conditions: 72 h, 3 days of culture
Protocol: (§1) The inhibitory effect of the compounds prepared in the Examples of the present invention on various tumor cell lines was detected using cell viability assay reagent.
(§2) Cell viability was detected using the Promega CellTiter-Glo kit, cell viability was determined by directly measuring intracellular ATP content. In the experiment, the ICso value of the compounds prepared in the Examples of the present invention on various tumor cell lines was detected.
(§3) Each tumor cell was cultured in relevant medium. After cell passage, the gradient diluted compounds prepared in the Examples of the present invention was added. After 3 days of culture, the relevant IC50 (50% inhibiting concentration) was measured. The name, source and culture conditions of each tumor cell line were as follows:
Cell line G-401 (ATCC, No. CRL-1441) was cultured in 10% fetal bovine serum-containing McCoy's 5a medium (+P/S).

[2] = tested on: MDA-MB-453 (breast cancer cell); experiment: Cell viability assay (Promega CellTiter-Glo), inhibitory effect on MDA-MB-453; conditions: Homo sapiens, 72 h, 3 days of culture
Protocol: as §1, §2, §3
Cell line MDA-MB-453 (ATCC, No. HTB-131) was cultured in 10% fetal bovine serum-containing Leibovitz's L-15 medium (+P/S).

[3] = tested on: CFPAC-1 (human pancreatic cancer cell); experiment: Cell viability assay (Promega CellTiter-Glo), inhibitory effect on CFPAC-1; conditions: 72 h, 3 days of culture
Protocol: as §1, §2, §3
Cell line CFPAC-1 (ATCC, No. CRL-1918) was cultured in 10% fetal bovine serum-containing IMDM medium (+P/S).

[4] = tested on: NB-1 (brain neuroblastoma cell); experiment: Cell viability assay (Promega CellTiter-Glo), inhibitory effect on NB-1; conditions: Homo sapiens, 72 h, 3 days of culture, read-out: inhibitory effect on brain cell line NB-1 (IC50)
Protocol: (§4) The inhibitory effect of the compounds prepared in the Examples of the present invention on various brain tumor cell lines was detected using cell viability assay reagent.
(§5) Cell viability was detected using the Promega CellTiter-Glo kit, cell viability was determined by directly measuring intracellular ATP content. In the experiment, the IC50 value of the compounds prepared in the Examples of the present invention on various brain tumor cell lines was detected.
as §3
Cell line NB-1 (ATCC, No. HTB-131) was cultured in 10% fetal bovine serum-containing Leibovitz's L-15 medium (+P/S).

[5] = tested on: ov-NNMT NCI-H82 cell (NNMT protein-overexpressing NCI-H82); experiment: Cell viability assay (Promega CellTiter-Glo), inhibitory effect on ov-NNMT NCI-H82 cell; conditions: Homo sapiens
Protocol: (§6) The role of expression level of NNMT gene and DNMT1 in the sensitivity of NCI-H82 cell to the compounds prepared in the Examples of the present invention was determined
(§7) The expression of NNMT protein in NCI-H82 cell was overexpressed by inserting the NNMT gene into NCI-H82 cell using a viral vector, and the NNMT protein-overexpressing NCI-H82 cell (ov-NNMT NCI-H82 cell) was obtained. The expression of DNMT1 in NCI-H82 cell was knocked down transfecting (the by shRNA nucleotide sequence of shRNA was […] TTTTTG (SEQ ID No: 2)) using a viral vector, and the NCI-H82 cell with low expression of DNMT1 protein (sh-DNMT1 NCI-H82 cell) was obtained. The control NCI-H82 cell (Con-NCI-H82 cell) was obtained by transfecting NCI-H82 cell with empty virus vector without carrying NNMT gene and shRNA. The expressing content of NNMT protein and DNMT1 protein in the Con-NCI-H82 cell, the expressing content of NNMT protein in the ov-NNMT NCI-H82 cell, and the expressing content of DNMT1 protein in the sh-DNMT1 NCI-H82 cell were detected using Western Blot assay (as shown in FIG. 15 and FIG. 16), it could be seen from FIG. 15 and FIG. 16 that the NNMT protein was overexpressed in the ov-NNMT NCI-H82 cell and the expression of DNMT1 protein was knocked down (i.e, low expression) in the sh-DNMT1 NCI-H82 cell compared with the expression level of NNMT protein and DNMT protein in the Con-NCI-H82 cell.

[6] = tested on: SW48 (human colon adenocarcinoma cell); experiment: Cell viability assay (Promega CellTiter-Glo), inhibitory effect on SW48; conditions: 72 h, 3 days of culture
Protocol: as §1, §2, §3
Cell line SW48 (ATCC, No. CCL-231) was cultured in 10% fetal bovine serum-containing Leibovitz's L-15 medium (+P/S).

[7] = tested on: Con-NCI-H82 cell (NCI-H82 transfected with empty virus vector); experiment: Cell viability assay (Promega CellTiter-Glo), inhibitory effect on Con-NCI-H82 cell; conditions: Homo sapiens; NCI-H82 transfected with empty virus vector (control); CellTiter-Glo; read-out: inhibitory effect on Con-NCI-H82 (IC50)
Protocol: as §6, §7

[8] = tested on: 786-O (clear cell renal cell adenocarcinoma cell); experiment: Cell viability assay (Promega CellTiter-Glo), inhibitory effect on 786-O; conditions: Homo sapiens, 786-0, 72 h, 3 days of culture
Protocol: as §1, §2, §3
Cell line 786-0 (ATCC, No. CRL-1932) was cultured in 10% fetal bovine serum-containing RPMI1640 medium (+P/S).

[9] = tested on: D341 Med (cerebellar medulloblastoma cell); experiment: Cell viability assay (Promega CellTiter-Glo), inhibitory effect on D341 Med; conditions: Homo sapiens, 72 h, 3 days of culture, read-out: inhibitory effect on brain cell line D341 Med (IC50)
Protocol: as §4, §5, §3
Cell line D341 Med (ATCC, No. HTB-187) was cultured in 20% fetal bovine serum-containing EMEM medium (+P/S).

[10] = tested on: SF126 (human glioblastoma multiforme cell); experiment: Cell viability assay (Promega CellTiter-Glo), inhibitory effect on SF126
Protocol: as §1, §2, §3
Cell line SF126 (JCRB, No. IFO50286) was cultured in 10% fetal bovine serum-containing EMEM medium (+P/S).
as §4, §5

[11] = tested on: GB-1 (human brain glioblastoma cell); experiment: Cell viability assay (Promega CellTiter-Glo), inhibitory effect on GB-1; conditions: 72 h, 3 days of culture
Protocol: as §1, §2, §3
Cell line GB-1 (JCRB, No. IFO50489) was cultured in 10% fetal bovine serum-containing DMEM medium (+P/S).
as §4, §5

[12] = tested on: sh-DNMT1 NCI-H82 cell (DNMT1 knocked down NCI-H82); experiment: Cell viability assay (Promega CellTiter-Glo), inhibitory effect on sh-DNMT1 NCI-H82 cell; conditions: Homo sapiens, NCI-H82 with DNMT1 knocked down by shRNA
Protocol: as §6, §7

[13] = tested on: Kelly (brain neuroblastoma cell); experiment: Cell viability assay (Promega CellTiter-Glo), inhibitory effect on Kelly; conditions: Homo sapiens, 72 h, 3 days of culture, read-out: inhibitory effect on brain cell line Kelly (IC50)
Protocol: as §4, §5, §3
Cell line Kelly (ECACC, No. 92110411) was cultured in 10% fetal bovine serum and 2 mM glutamine-containing RPMI1640 medium.

[14] = tested on: NCI-H82 (human small cell lung cancer cell); experiment: Cell viability assay (Promega CellTiter-Glo), inhibitory effect on NCI-H82; conditions: 72 h, 3 days of culture
Protocol: as §1, §2, §3
Cell line NCI-H82 (ATCC, No. HTB-175) was cultured in 10% fetal bovine serum-containing RPMI1640 medium (+P/S).

[15] = 72 h, SF-126, 3 days of culture, Table 3, read-out: inhibitory effect on SF-126 (IC50)
[16] = SF-126, 72 h, SF126, 3 days of culture, Table 4, read-out: inhibitory effect on brain cell line SF126 (IC50)
[17] = Table 3, read-out: inhibitory effect on GB-1 (IC50)
[18] = Table 4, read-out: inhibitory effect on brain cell line GB-1 (IC50)

| IC50 [1] [nM] | IC50 [2] [nM] | IC50 [3] [nM] | IC50 [4] [nM] | IC50 [5] [nM] | IC50 [6] [nM] | IC50 [7] [nM] | IC50 [8] [nM] | IC50 [9] [nM] | IC50 [10, 15] [nM] | IC50 [10, 16] [nM] | IC50 [11, 17] [nM] | IC50 [11, 18] [nM] | IC50 [12] [nM] | IC50 [13] [nM] | IC50 [14] [nM] | SMILES |
| --- | --- | --- | --- | --- | --- | --- | --- | --- | --- | --- | --- | --- | --- | --- | --- | --- |
| 420 | 400 | 8320 | 120 | 920 | 490 | 360 | 5410 | 980 | 5140 | 5140 | 6470 | 6470 | 1380 | 590 | 360 | CCCCCc1c2[n+](cc3c(OC)c(OC)ccc13)CCc1cc3c(cc1-2)OCO3 [compound AB31758] |
| 310 | 310 | 8150 | 120 | 640 | 310 | 270 | 3180 | 850 | 3940 | 3940 | 3470 | 3470 | 1180 | 410 | 270 | CCCCCCc1c2[n+](cc3c(OC)c(OC)ccc13)CCc1cc3c(cc1-2)OCO3 [compound AB31759] |
| 150 | 250 | 2710 | 90 | 350 | 210 | 150 | 1600 | 700 | 3890 | 3890 | 3670 | 3670 | 710 | 230 | 150 | CCCCCCCc1c2[n+](cc3c(OC)c(OC)ccc13)CCc1cc3c(cc1-2)OCO3 [compound AB31760] |
| 180 | 270 | 4310 | 120 | 650 | 370 | 260 | 2100 | 570 | 3700 | 3700 | 3610 | 3610 | 980 | 300 | 260 | CCCCCCc1c2c(OC)c(OC)ccc2cc2[n+]1CCc1cc3c(cc1-2)OCO3 [compound AB31767] |
| 490 | 280 | 6630 | 80 | 880 | 480 | 340 | 4090 | 330 | 4290 | 4290 | 4230 | 4230 | 1310 | 690 | 340 | COc1ccc2cc3[n+](cc2c1OCCCCCCBr)CCc1cc2c(cc1-3)OCO2 [compound AB31787] |

The remaining lines, values behind:

| SMILES | IC50 [1] [nM] | IC50 [2] [nM] | IC50 [3] [nM] | IC50 [4] [nM] | IC50 [5] [nM] | IC50 [6] [nM] | IC50 [7] [nM] | IC50 [8] [nM] | IC50 [9] [nM] | IC50 [10, 15] [nM] | IC50 [10, 16] [nM] | IC50 [11, 17] [nM] | IC50 [11, 18] [nM] | IC50 [12] [nM] | IC50 [13] [nM] | IC50 [14] [nM] |
| --- | --- | --- | --- | --- | --- | --- | --- | --- | --- | --- | --- | --- | --- | --- | --- | --- |
| COc1ccc2c(CCC(C)C)c3[n+](cc2c1OC)CCc1cc2c(cc1-3)OCO2 [compound AB31765] | 1270 | 1070 | 21700 | 300 | 2880 | 1160 | 1340 | 9090 | 1630 | 9800 | 9800 | 14800 | 14800 | 4050 | 1290 | 1340 |
| COc1ccc2cc3[n+](cc2c1OC(=O)CC12CC4CC(CC(C4)C1)C2)CCc1cc2c(cc1-3)OCO2 [compound AB31771] | 2040 | 350 | 17100 | 1040 | 3940 | 1370 | 1870 | 20800 | 1660 | 15700 | 15700 | 11200 | 11200 | 5810 | 2210 | 1870 |
| COc1ccc2c(CCc3ccccc3)c3[n+](cc2c1OC)CCc1cc2c(cc1-3)OCO2 [compound AB31780] | 880 | 900 | 17900 | 230 | 1520 | 790 | 660 | 8050 | 1880 | 9750 | 9750 | 12600 | 12600 | 1980 | 1160 | 660 |
| COc1ccc2c(CCCc3ccccc3)c3[n+](cc2c1OC)CCc1cc2c(cc1-3)OCO2 [compound AB31781] | 370 | 760 | 11300 | 140 | 1160 | 400 | 330 | 5340 | 820 | 7480 | 7480 | 8600 | 8600 | 1420 | 730 | 330 |
| COc1ccc2c(Cc3ccc(OC(F)(F)F)cc3)c3[n+](cc2c1OC)CCc1cc2c(cc1-3)OCO2 [compound AB31788] | 630 | 1030 | 16800 | 310 | 2420 | 690 | 710 | 10800 | 1880 | 10900 | 10900 | 16500 | 16500 | 2950 | 1300 | 710 |
